Results on 2 molecules are retold here after patent US7947279B2, “Peptide having hydrolase activity” (The Trustees of Columbia University in the City of New York, priority 2005, dated 2011).

Entries after “also recorded” stand apart in the source; their conditions may differ.

For assay [1], the target named is T1, Uch-L3 (Homo sapiens, UniProt P15374).
T1 sequence (P15374 1-230): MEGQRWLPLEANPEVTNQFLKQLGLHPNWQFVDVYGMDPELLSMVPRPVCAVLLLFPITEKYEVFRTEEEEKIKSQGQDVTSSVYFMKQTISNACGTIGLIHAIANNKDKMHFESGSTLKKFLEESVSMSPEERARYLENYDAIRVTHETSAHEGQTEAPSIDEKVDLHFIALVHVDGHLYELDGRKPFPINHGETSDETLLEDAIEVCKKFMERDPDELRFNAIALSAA
The assay is described as follows: Nedd8-AMC hydrolysis by Uch-L3. The format is biochemical. The following applies: 5 μM LDN, 20 nM Uch-L3, Nedd8-AMC 400 nM. Here is the method:
Measurement of Hydrolase Activity: The hydrolase assay was performed as previously described (Nishikawa et al., 2003) with slight modifications. Briefly, hippocampal tissue was treated with tissue protein extraction reagent (T-PER; Pierce) containing freshly added EDTA-free protease inhibitors. Homogenate was centrifuged at 10,000 rpm for 5 min. Protein concentration was measured in the supernatant using the BCA protein assay reagent. In some experiments hydrolysis was initiated by adding 10 μl of 20 nM Uch-L1 or Uch-L3 (Boston Biochem). The hydrolase assay was performed using fluorogenic ubiquitin-7-amino-4-methylcoumarin (ubiquitin-AMC) (Boston Biochem) as a substrate. The substrate was diluted in assay buffer (50 mM Tris-HCL, 0.5 mM EDTA, 5 mM dithiothreitol and 0.1 mg/ml ovalbumin, pH 7.6). […] The reaction was monitored using a fluorescence spectrophotometer (CytoFluor Series 4000, ABI Inc) at 25° C. The free AMC fluorophore was excited at 380 nm and measured at 460 nm. Hydrolase activity was expressed as relative fluorescence intensity/min (Dang et al., 1998). In some experiments, hydrolysis was also measured on the soluble and insoluble fractions (FIG. 28D). In a group of experiments hydrolysis was measured by mixing ubiquitin-AMC with 20 nM TAT fusion proteins (FIG. 27C). […]

Assay [2] concerns the target T1, Uch-L3. The following applies: cited from earlier work.
Another assay concerns phospho-CREB. The assay is described as follows: Phospho-CREB immunofluorescence in hippocampal slices. Type of assay: cell-based, mouse.

A word on the IC50: it is the concentration that gives 50% inhibition. On to `CC(=O)O/N=C1\C(=O)N(Cc2cc(Cl)ccc2Cl)c2ccc(Cl)cc21` [LDN-57444, reference compound], for which the results for the “Uch-L3 hydrolase activity (Nedd8-AMC hydrolysis)” value on Uch-L3 [1] and on Uch-L3 [1] (listed as LDN) were “does not affect Uch-L3 hydrolase activity” and “no reduction in hydrolysis of Nedd8-AMC”, respectively. Besides, the IC50 at Uch-L3 [2] is 25 µM.

B1: TAT-HA-Uch-L1: fusion protein: 11-amino acid transduction domain of HIV-transactivator protein (TAT) fused with an HA tag and human Uch-L1 (protein)
chain: MQLKPMEINPEMLNKVLSRLGVAGQWRFVDVLGLEEESLGSVPAPACALLLLFPLTAQHENFRKKQIEELKGQEVSPKVYFMKQTIGNSCGTIGLIHAVANNQDKLGFEDGSVLKQFLSETEKMSPEDRAKCFEKNEAIQAAHDAVAQEGQCRVDDKVNFHFILFNNVDGHLYELDGRMPFPVNHGASSEDTLLKDAAKVCREFTEREQGEVRFSAVALCKAA
modifications: left off: small tags and cut ends
Take B1: in the assay on phospho-CREB (fusion protein 20 nM 1 hr, then 200 nM Aβ plus fusion protein 20 min), the “tetanus-induced increase in phospho-CREB in Aβ-treated slices” value is reported as “significant protection against Aβ42 effects on phospho-CREB; also recorded: reversed; also recorded: re-established the tetanus-induced increase in CREB phosphorylation; also recorded: re-established the tetanus-induced increase in phospho-CREB”. Moreover, the “tetanus-induced increase in phospho-CREB (words)” value in the assay on phospho-CREB (fusion protein alone) was “did not affect the increase; also recorded: had no effect”. In addition, in the assay with phospho-CREB (no tetanus), the “phospho-CREB immunofluorescence without theta-burst” value is “did not modify immunofluorescence; also recorded: neither Aβ42 alone nor TAT-HA-Uch-L1 alone nor TAT-HA-Uch-L1 paired with Aβ42 induced changes”.
